Usually IC50 stands for the concentration needed to halve the response being measured. Read a low IC50 as greater potency in that assay.

Assay [1] concerns the target intracellular GCN2 (phosphorylation of the GCN2 substrate eIF2α) (Homo sapiens, UniProt Q9P2K8). Nature of the assay: GCN2 cellular inhibition assay (AlphaScreen SureFire P-eIF2α Ser51, borrelidin-treated U2OS cells). Type of assay: cell-based. The following applies: compounds of Formula IV; biomarker assay, phosphorylated eIF2α Ser51 in borrelidin-treated U2OS cells. Put shortly:
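U2OS, overnight attach; cpd 4-fold serial dil. from 40 μM final; borrelidin 10 μM, 1 h 37 °C/5% CO2; lyse; AlphaScreen P-eIF2α Ser51 (acceptor 2 h, donor overnight, RT, dark); % inhib. vs borrelidin-only.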
(In general: Bead proximity is the source of the signal in Alpha formats.)

The target in the next assay is GCN2 kinase (Homo sapiens, UniProt Q9P2K8). Nature of the assay: GCN2 enzyme inhibition assay (Transcreener ADP2 fluorescence polarization). To be noted: Enzyme activity for compounds of Formula IV; Ki(app), 280 μM ATP, 25° C. Type of assay: biochemical. In outline: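 FP detection of ADP (antibody plus Alexa633 tracer) after a 1 h, 25 °C kinase reaction. Enzyme 4 nM, ATP 280 μM, (RS)7 peptide 200 μM, Tris pH 7.5 buffer with MgCl2 and DTT. Percent inhibition fitted by non-linear tight-binding algorithm for IC50 and Ki(app).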
Sequence of GCN2 kinase (Q9P2K8 whole entry): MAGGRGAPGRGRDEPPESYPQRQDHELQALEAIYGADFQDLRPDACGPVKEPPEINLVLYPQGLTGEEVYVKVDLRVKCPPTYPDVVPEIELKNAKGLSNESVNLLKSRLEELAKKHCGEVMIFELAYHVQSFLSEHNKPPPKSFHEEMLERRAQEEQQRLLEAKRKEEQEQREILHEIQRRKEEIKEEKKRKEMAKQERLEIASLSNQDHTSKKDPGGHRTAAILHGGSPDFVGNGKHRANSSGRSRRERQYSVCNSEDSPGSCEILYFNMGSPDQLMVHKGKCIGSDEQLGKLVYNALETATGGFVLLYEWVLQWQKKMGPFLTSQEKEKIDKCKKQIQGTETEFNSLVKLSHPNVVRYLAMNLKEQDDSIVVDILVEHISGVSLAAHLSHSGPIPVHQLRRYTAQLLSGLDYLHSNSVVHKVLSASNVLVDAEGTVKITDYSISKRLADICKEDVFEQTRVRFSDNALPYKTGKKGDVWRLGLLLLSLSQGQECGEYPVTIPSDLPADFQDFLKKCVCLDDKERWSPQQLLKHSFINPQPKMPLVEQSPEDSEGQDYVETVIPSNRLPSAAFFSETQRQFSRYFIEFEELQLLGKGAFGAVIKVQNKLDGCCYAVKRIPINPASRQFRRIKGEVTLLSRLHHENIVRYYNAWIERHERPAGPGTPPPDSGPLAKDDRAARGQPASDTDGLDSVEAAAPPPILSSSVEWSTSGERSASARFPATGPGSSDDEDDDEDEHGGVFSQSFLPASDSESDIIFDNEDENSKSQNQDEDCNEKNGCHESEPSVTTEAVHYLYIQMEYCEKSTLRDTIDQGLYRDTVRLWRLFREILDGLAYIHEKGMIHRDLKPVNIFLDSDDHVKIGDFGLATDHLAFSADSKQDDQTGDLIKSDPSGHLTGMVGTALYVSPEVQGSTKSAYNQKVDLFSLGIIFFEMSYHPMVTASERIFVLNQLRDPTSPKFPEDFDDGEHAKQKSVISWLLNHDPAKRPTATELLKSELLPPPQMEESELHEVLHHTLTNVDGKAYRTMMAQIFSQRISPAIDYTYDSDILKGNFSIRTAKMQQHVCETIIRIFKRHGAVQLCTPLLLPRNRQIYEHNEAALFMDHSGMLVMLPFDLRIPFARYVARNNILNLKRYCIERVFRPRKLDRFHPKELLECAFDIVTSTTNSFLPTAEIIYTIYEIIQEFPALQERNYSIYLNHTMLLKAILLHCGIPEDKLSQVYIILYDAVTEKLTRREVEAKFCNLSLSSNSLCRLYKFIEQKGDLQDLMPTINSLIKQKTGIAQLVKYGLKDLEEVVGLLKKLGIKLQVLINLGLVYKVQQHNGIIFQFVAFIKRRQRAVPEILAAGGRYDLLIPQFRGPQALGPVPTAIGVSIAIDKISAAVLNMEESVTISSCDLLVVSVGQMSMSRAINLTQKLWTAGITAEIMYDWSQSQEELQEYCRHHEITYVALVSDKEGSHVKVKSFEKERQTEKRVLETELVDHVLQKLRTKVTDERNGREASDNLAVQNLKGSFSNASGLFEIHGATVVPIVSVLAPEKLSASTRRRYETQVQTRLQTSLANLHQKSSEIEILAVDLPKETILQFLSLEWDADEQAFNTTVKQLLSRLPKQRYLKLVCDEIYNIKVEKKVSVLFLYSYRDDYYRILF
(In general: In fluorescence polarisation assays a small probe gives low polarisation when free and higher when bound to something large.)

Sequence of intracellular GCN2 (phosphorylation of the GCN2 substrate eIF2α) (Q9P2K8 whole entry): as above

Consider `CNS(=O)(=O)C1CCCN(c2ccnc(-c3cnc4cnc(C(F)F)cn34)n2)C1` (stereo not drawn) [IV-164, 1-(2-(6-(Difluoromethyl)imidazo[1,2-a]pyrazin-3-yl)pyrimidin-4-yl)-N-methylpiperidine-3-sulfonamide], for which the IC50 in assay [1] is > 5 µM. The compound also returned a Ki on GCN2 kinase of 100 to 1000 nM.

Regarding `CS(=O)(=O)C1CCCN(c2ccnc(-c3cnc4cnc(C(F)F)cn34)n2)C1` (stereo not drawn) [IV-165, 6-(Difluoromethyl)-3-(4-(3-(methylsulfonyl)piperidin-1-yl)pyrimidin-2-yl)imidazo[1,2-a]pyrazine], the IC50 in assay [1] was > 5 µM. The Ki at GCN2 kinase is 100 to 1000 nM.

Turning to `CN1CCN(Cc2cccc(-c3ccnc(-c4cnc5cnc(C(F)F)cn45)n3)c2)CC1` [IV-166, 6-(Difluoromethyl)-3-(4-(3-((4-methylpiperazin-1-yl)methyl)phenyl)pyrimidin-2-yl)imidazo[1,2-a]pyrazine], the concentration for half-maximal inhibition (IC50) in assay [1] was > 5 µM. The same compound displayed a Ki on GCN2 kinase of 100 to 1000 nM.

Turning to `NCC(=O)Nc1cccc(-c2ccnc(-c3cnc4cnc(C(F)F)cn34)n2)c1` [IV-167, 2-Amino-N-(3-(2-(6-(difluoromethyl)imidazo[1,2-a]pyrazin-3-yl)pyrimidin-4-yl)phenyl)acetamide], the half-inhibitory concentration (IC50) in assay [1] is > 5 µM. At GCN2 kinase, this compound yielded a Ki of 100 to 1000 nM.

Consider `CN(C1CCCN(c2ccnc(-c3cnc4cnc(C(F)F)cn34)n2)C1)S(C)(=O)=O` (stereo not drawn) [IV-168, N-(1-(2-(6-(Difluoromethyl)imidazo[1,2-a]pyrazin-3-yl)pyrimidin-4-yl)piperidin-3-yl)-N-methylmethanesulfonamide], for which the 50% inhibitory concentration (IC50) in assay [1] was > 5 µM. The compound further yielded a Ki at GCN2 kinase of 100 to 1000 nM.

Take `CS(=O)(=O)NC1CCCN(c2ccnc(-c3cnc4cnc(C(F)F)cn34)n2)C1` (stereo not drawn) [IV-169, N-(1-(2-(6-(Difluoromethyl)imidazo[1,2-a]pyrazin-3-yl)pyrimidin-4-yl)piperidin-3-yl)methanesulfonamide]: the IC50 in assay [1] is > 5 µM. For the same compound, at GCN2 kinase, the Ki lay within 100 to 1000 nM.

Regarding `CN(C)S(=O)(=O)C1CCCN(c2ccnc(-c3cnc4cnc(C(F)F)cn34)n2)C1` (stereo not drawn) [IV-170, 1-(2-(6-(Difluoromethyl)imidazo[1,2-a]pyrazin-3-yl)pyrimidin-4-yl)-N,N-dimethylpiperidine-3-sulfonamide], the concentration for half-maximal inhibition (IC50) in assay [1] is > 5 µM. The Ki on GCN2 kinase lay in the range of 100 to 1000 nM.

With `O=S(=O)(NC1CCCC1)C1CCCN(c2ccnc(-c3cnc4cnc(C(F)F)cn34)n2)C1` (stereo not drawn) [IV-171, N-Cyclopentyl-1-(2-(6-(difluoromethyl)imidazo[1,2-a]pyrazin-3-yl)pyrimidin-4-yl)piperidine-3-sulfonamide], in assay [1], the half-inhibitory concentration (IC50) was > 5 µM. Also, on GCN2 kinase, the Ki was in the range of 100 to 1000 nM.

For the compound `O=S(=O)(C1CCCN(c2ccnc(-c3cnc4cnc(C(F)F)cn34)n2)C1)N1CCOCC1` (stereo not drawn) [IV-172, 4-((1-(2-(6-(Difluoromethyl)imidazo[1,2-a]pyrazin-3-yl)pyrimidin-4-yl)piperidin-3-yl)sulfonyl)morpholine], in assay [1], the IC50 was > 5 µM. For the same compound, the Ki on GCN2 kinase lay in the range of 100 to 1000 nM.

As for `FC(F)c1cn2c(-c3nccc(N4CCCC(c5cscn5)C4)n3)cnc2cn1` (stereo not drawn) [IV-174, 4-(1-(2-(6-(Difluoromethyl)imidazo[1,2-a]pyrazin-3-yl)pyrimidin-4-yl)piperidin-3-yl)thiazole], the IC50 in assay [1] was > 5 µM. For the same compound, on GCN2 kinase, the Ki was in the range of 100 to 1000 nM.

Consider `OCc1ccc(-c2ccnc(-c3cnc4cnc(C(F)F)cn34)n2)s1` [IV-175, (5-(2-(6-(Difluoromethyl)imidazo[1,2-a]pyrazin-3-yl)pyrimidin-4-yl)thiophen-2-yl)methanol], for which the IC50 in assay [1] was > 5 µM. Also, the Ki on GCN2 kinase is 100 to 1000 nM.

Regarding `NC(=O)c1ccc(F)c(-c2ccnc(-c3cnc4cnc(C(F)F)cn34)n2)c1` [IV-176, 3-(2-(6-(Difluoromethyl)imidazo[1,2-a]pyrazin-3-yl)pyrimidin-4-yl)-4-fluorobenzamide], the concentration for half-maximal inhibition (IC50) in assay [1] is > 5 µM. This compound also yielded a Ki on GCN2 kinase of 100 to 1000 nM.

Regarding `NS(=O)(=O)C1CCCN(c2ccnc(-c3cnc4cnc(C(F)F)cn34)n2)C1` (stereo not drawn) [IV-177, 1-(2-(6-(Difluoromethyl)imidazo[1,2-a]pyrazin-3-yl)pyrimidin-4-yl)piperidine-3-sulfonamide], the concentration for half-maximal inhibition (IC50) in assay [1] is > 5 µM. This compound gave a Ki at GCN2 kinase of 100 to 1000 nM.

For `NS(=O)(=O)N[C@H]1CCCN(c2ccnc(-c3cnc4cnc(C(F)F)cn34)n2)C1` [IV-179, 6-(Difluoromethyl)-3-[4-[(3S)-3-(sulfamoylamino)-1-piperidyl]pyrimidin-2-yl]imidazo[1,2-a]pyrazine], in assay [1], the 50% inhibitory concentration (IC50) is > 5 µM. Further, the Ki on GCN2 kinase lay in the range of 100 to 1000 nM.

Consider `NS(=O)(=O)N[C@@H]1CCCN(c2ccnc(-c3cnc4cnc(C(F)F)cn34)n2)C1` [IV-181, 6-(Difluoromethyl)-3-[4-[(3R)-3-(sulfamoylamino)-1-piperidyl]pyrimidin-2-yl]imidazo[1,2-a]pyrazine], for which the IC50 in assay [1] was > 5 µM. Besides, on GCN2 kinase, the Ki was in the range of 100 to 1000 nM.

The compound `CC(=O)N1CCN(c2nccc(-c3cnc4cnc(C(N)=O)cn34)n2)CC1` [IV-182, 3-(2-(4-Acetylpiperazin-1-yl)pyrimidin-4-yl)imidazo[1,2-a]pyrazine-6-carboxamide] displayed an IC50 in assay [1] of 0.5 to 5 µM. For the same compound, on GCN2 kinase, the Ki was 10 to 100 nM.

As to `CC(=O)N1CCN(c2cncc(-c3cnc4cnc(C(N)=O)cn34)n2)CC1` [IV-183, 3-(6-(4-Acetylpiperazin-1-yl)pyrazin-2-yl)imidazo[1,2-a]pyrazine-6-carboxamide], the IC50 in assay [1] is > 5 µM. On GCN2 kinase, this compound registered a Ki of 100 to 1000 nM.

Consider `CC(=O)N1CCN(c2cccc(-c3cnc4cnc(C(N)=O)cn34)n2)CC1` [IV-184, 3-(6-(4-Acetylpiperazin-1-yl)pyridin-2-yl)imidazo[1,2-a]pyrazine-6-carboxamide], for which, in assay [1], the half-maximal inhibitory concentration (IC50) was < 0.5 µM. The Ki on GCN2 kinase was 10 to 100 nM.

`CC1CN(c2ccnc(-c3cnc4cnc(C(F)(F)F)cn34)n2)CC(c2cn[nH]c2)N1` (stereo not drawn) [IV-189, 3-(4-(3-Methyl-5-(1H-pyrazol-4-yl)piperazin-1-yl)pyrimidin-2-yl)-6-(trifluoromethyl)imidazo[1,2-a]pyrazine]: in assay [1], the IC50 was 0.5 to 5 µM. Besides, at GCN2 kinase, the Ki lay within 10 to 100 nM.

Turning to `CC1CN(c2ccnc(-c3cnc4cnc(Cl)cn34)n2)CC(c2cn[nH]c2)O1` (stereo not drawn) [IV-193, 4-(2-(6-Chloroimidazo[1,2-a]pyrazin-3-yl)pyrimidin-4-yl)-2-methyl-6-(1H-pyrazol-4-yl)morpholine], in assay [1], the IC50 is < 0.5 µM. In addition, the Ki at GCN2 kinase is < 10 nM.

In the case of `CC1CN(c2ccnc(-c3cnc4cnc(C#N)cn34)n2)CC(c2cn[nH]c2)O1` (stereo not drawn) [IV-194, 3-(4-(2-Methyl-6-(1H-pyrazol-4-yl)morpholino)pyrimidin-2-yl)imidazo[1,2-a]pyrazine-6-carbonitrile], the IC50 in assay [1] is < 0.5 µM. Moreover, the Ki at GCN2 kinase was < 10 nM.

`CC1CN(c2ccnc(-c3cnc4cnc(C(F)(F)F)cn34)n2)CC(c2cn[nH]c2)N1C` (stereo not drawn) [IV-195, 3-(4-(3,4-Dimethyl-5-(1H-pyrazol-4-yl)piperazin-1-yl)pyrimidin-2-yl)-6-(trifluoromethyl)imidazo[1,2-a]pyrazine] gave an IC50 in assay [1] of 0.5 to 5 µM. This compound also gave a Ki at GCN2 kinase of 10 to 100 nM.

For `NC(=O)c1cn2c(-c3cccc(N4CCCCC4)n3)cnc2cn1` [IV-204, 3-(6-(Piperidin-1-yl)pyridin-2-yl)imidazo[1,2-a]pyrazine-6-carboxamide], in assay [1], the 50% inhibitory concentration (IC50) was > 5 µM. This compound also yielded a Ki on GCN2 kinase of 10 to 100 nM.

The compound `CC(=O)N1CCN(c2cccc(-c3cnc4cnc(-n5cccn5)cn34)n2)CC1` [IV-209, 1-(4-(6-(6-(1H-Pyrazol-1-yl)imidazo[1,2-a]pyrazin-3-yl)pyridin-2-yl)piperazin-1-yl)ethan-1-one] gave a half-inhibitory concentration (IC50) in assay [1] of 0.5 to 5 µM. The Ki on GCN2 kinase was < 10 nM.

`NC(=O)c1cn2c(-c3cccc(N4CCN5C(=O)CCCC5C4)n3)cnc2cn1` (stereo not drawn) [IV-210, 3-(6-(6-Oxooctahydro-2H-pyrido[1,2-a]pyrazin-2-yl)pyridin-2-yl)imidazo[1,2-a]pyrazine-6-carboxamide] gave an IC50 in assay [1] of 0.5 to 5 µM. Moreover, at GCN2 kinase, the Ki is < 10 nM.

In assay [1], `FC(F)(F)c1cn2c(-c3nccc(N4CCNC(c5cn[nH]c5)C4)n3)cnc2cn1` (stereo not drawn) [IV-211, 3-(4-(3-(1H-Pyrazol-4-yl)piperazin-1-yl)pyrimidin-2-yl)-6-(trifluoromethyl)imidazo[1,2-a]pyrazine] displayed an IC50 of 0.5 to 5 µM. The Ki on GCN2 kinase was < 10 nM.

Regarding `CC1CN(c2ccnc(-c3cnc4cnc(C(F)(F)F)cn34)n2)C(C)C(c2cn[nH]c2)N1` (stereo not drawn) [IV-222, 3-(4-(2,5-Dimethyl-3-(1H-pyrazol-4-yl)piperazin-1-yl)pyrimidin-2-yl)-6-(trifluoromethyl)imidazo[1,2-a]pyrazine], the IC50 in assay [1] is < 0.5 µM. Moreover, the Ki on GCN2 kinase is < 10 nM.

Turning to `C[C@H]1CN(c2ccnc(-c3cnc4cnc(C(F)(F)F)cn34)n2)[C@@H](C)[C@@H](c2cn[nH]c2)N1` [IV-224, 3-(4-((2S,3R,5S)-2,5-dimethyl-3-(1H-pyrazol-4-yl)piperazin-1-yl)pyrimidin-2-yl)-6-(trifluoromethyl)imidazo[1,2-a]pyrazine], in assay [1], the IC50 was < 0.5 µM. Also, the Ki on GCN2 kinase is < 10 nM.

Compound `NC(=O)c1cn2c(-c3cccc(-c4cccc5[nH]ccc45)n3)cnc2cn1` [IV-225, 3-(6-(1H-Indol-4-yl)pyridin-2-yl)imidazo[1,2-a]pyrazine-6-carboxamide] yielded an IC50 in assay [1] of 0.5 to 5 µM. On GCN2 kinase, this compound came in with a Ki of 10 to 100 nM.

As to `NC(=O)c1cn2c(-c3cccc(N4CCN5C(=O)CCC[C@H]5C4)n3)cnc2cn1` [IV-228, (S)-3-(6-(6-Oxooctahydro-2H-pyrido[1,2-a]pyrazin-2-yl)pyridin-2-yl)imidazo[1,2-a]pyrazine-6-carboxamide], the IC50 in assay [1] was 0.5 to 5 µM. This compound also displayed a Ki at GCN2 kinase of 10 to 100 nM.

The values above are taken from patent US10988477B2 (Merck Patent GmbH, priority 2018, dated 2021).
